Measurements as given in US20060216362A1, “Remedy” (priority 2003, published 2006).

Legend:
Assay type in all cases: cell-based
[1] = system: mature adipocytes (3T3-L1 cells); assay: Glucose uptake enhancement inhibited by cytochalasin B (glucose transporter inhibitor)
Protocol: The influence of cytochalasin B on 2-deoxyglucose uptake into mature adipocytes stimulated with the sample in the adipocytes was tested in accordance with the method described in Example 17 on whether or not the enhancing action of the ethanol extract fraction from Polygonum hydropiper obtained in Example 15 on glucose uptake is inhibited by cytochalasin B, which is an inhibitor of a glucose transporter.
Specifically, as a sample, there was set a group with addition of a dimethyl sulfoxide solution of the ethanol extract fraction from Polygonum hydropiper so as to have a final concentration of 0.05% to a well (treatment for a short period of time). There were set a group without addition of the sample as a negative control, and a group with addition of insulin so as to have a final concentration of 1 μg/mL as a positive control. Furthermore, in each group, there was set a group with addition of cytochalasin B (manufactured by Nacalai Tesque, Inc., 10435-81) so as to have a final concentration of 40 μM at the same time as the time of addition of insulin or the sample. Thereafter, the amount of 2-deoxy-[1,2^3H(N)]-glucose taken into the adipocytes was determined in the same manner.

[2] = system: mature adipocytes (3T3-L1 cells); assay: Synergistic action of ethanol extract fraction and low-concentration insulin to enhance glucose uptake; conditions: insulin alone, final concentration 0.01 μg/mL, 30 minutes; vs negative control
Protocol: As the evaluation of synergistic action of the ethanol extract fraction from Polygonum hydropiper prepared in Example 15 and a low-concentration insulin to enhance glucose uptake, the amount of 2-deoxyglucose uptake into mature adipocytes stimulated with the sample (the above-mentioned extract fraction from Polygonum hydropiper and insulin) was determined partly in accordance with the method described in Example 17. The mature adipocytes were prepared in accordance with the method described in Example 3.
After the termination of the culture, the medium was removed, and the cells were washed twice with a 0.1% (w/v) bovine serum albumin-containing Dulbecco's modified Eagle's medium. Thereafter, the cells were cultured overnight at 37° C. in the presence of 5% carbon dioxide gas. After the overnight culture, the cells were washed twice with a HEPES buffered saline (140 mM NaCl, 5 mM KCl, 2.5 mM MgSO4, 1 mM CaCl2, 20 mM HEPES-Na (pH 7.4)). The amount 0.9 mL of the same buffer was added thereto, and the cells were cultured at 37° C. for 45 minutes. […] Thereafter, 2-deoxy-[1,2-3H(N)]-glucose taken into the adipocytes was determined in the same manner as the method described in Example 3.

[3] = system: mature adipocytes (3T3-L1 cells); assay: Enhancing action on glucose uptake: 2-deoxy-[1,2-3H(N)]-glucose uptake into mature adipocytes; conditions: positive control, final concentration 1 μg/mL, added when 45 minutes passed; vs negative control
Description: In addition, there have been known that insulin has an enhancing action on glucose uptake into a cell, and that glucose uptake into the cell is enhanced by the action of insulin in a matured adipocyte (J. Biol. Chem., Vol. 253, No. 20, P7579-7583 (1978)). Specifically, utilizing this method, an insulin-mimetic action of a test substance can be determined by administering a test substance in place of insulin, and determining the amount of glucose uptake into a matured adipocyte.
The induction of differentiation into mature adipocytes was carried out by partially modifying the method of Rubin C. S. et al. 3T3-L1 cells were suspended in a 10% fetal bovine serum-containing Dulbecco's modified Eagle's medium (manufactured by Sigma, D6046) containing 200 μM ascorbic acid so as to have a density of 4×10^3 cells/ml, and the suspension was put in each well of a 12-well microtiter plate in an amount of 2 ml per well. The cells were cultured at 37° C. for 7 days in the presence of 5% carbon dioxide gas. […]
As the evaluation of enhancing action on glucose uptake, and also as the evaluation of insulin-mimetic action, the amount of 2-deoxyglucose uptake into mature adipocytes stimulated with the sample (the above-mentioned extract fraction from Corchorus olitorius) in the adipocytes was determined. […]

[4] = system: Preadipocyte cell line 3T3-L1; assay: Induction of differentiation into adipocytes, determined as amount of biosynthesis of triglyceride; conditions: positive control, 4 μl then 2 μl of a 5 mg/ml aqueous solution per 2 ml well
Description: There have been known that insulin enhances induction of differentiation of preadipocytes into adipocytes, and that glucose uptake takes place in matured adipocytes thereby accumulating triglyceride in the adipocytes (J. Biol. Chem., Vol. 253, No. 20, P7570-7578 (1978)). Specifically, utilizing this method, an insulin-mimetic action of a test substance can be determined by administering a test substance in place of insulin, and determining differentiation into an adipocyte and the amount of triglyceride in the adipocytes.
The induction of differentiation into adipocytes was carried out by partially modifying the above-mentioned method of Rubin C. S. et al. (J. Biol. Chem., Vol. 253, No. 20, P7570-7578 (1978)). Preadipocyte cell line 3T3-L1 (ATCC CCL-92.1) was suspended in a 10% fetal bovine serum (manufactured by GIBCO)-containing Dulbecco's modified Eagle's medium (manufactured by Sigma, D6046) containing 200 μM ascorbic acid (hereinafter referred to as A-D-MEM medium) so as to have a density of 4×10^3 cells/ml, and the suspension was put in each well of a 12-well microtiter plate in an amount of 2 ml per well. The cells were cultured at 37° C. for 7 days in the presence of 5% carbon dioxide gas. […]
The amount of triglyceride in the adipocytes was determined as an index for inducing differentiation into matured adipocytes, and as evaluation of insulin-mimetic action. […]

Compound	effect on 2-deoxy-[1,2-3H(N)]-glucose uptake ([1]; cytochalasin B 40 μM added at the same time as insulin or sample, in every group)	enhancement of 2-deoxy-[1,2-3H(N)]-glucose uptake [2]	enhancement of 2-deoxy-[1,2-3H(N)]-glucose uptake [3]	enhancement of 2-deoxy-[1,2-3H(N)]-glucose uptake ([1]; positive control, final concentration 1 μg/mL, without cytochalasin B, vs negative control)	induction of triglyceride biosynthesis (differentiation into adipocytes) [4]
C=C1[C@@H](C)[C@H]2[C@H](Cc3ccccc3)NC(=O)[C@]23OC(=O)/C=C/[C@H](O)CCC[C@@H](C)C/C=C/[C@H]3[C@@H]1O [cytochalasin B]	almost completely inhibited	–	–	–	–
insulin	–	enhancement of 2-deoxy-[1,2^3H(N)]-glucose uptake was found	enhancement of 2-deoxy-[1,2^3H(N)]-glucose uptake was found	enhancement of 2-deoxy-[1,2^3H(N)]-glucose uptake was found	induction of triglyceride biosynthesis could be also confirmed
